This note sets out measurements from US20240116922A1, “IMIDAZO[1,2-A]PYRIDINE DERIVATIVES AS IRAK4 INHIBITORS AND THEIR USE IN THE TREATMENT OF DISEASE” (BIOGEN MA INC., priority 2020, published 2024).

SMILES strings stand for the structures. In brackets after ≈: the same amount, converted by molar mass. Structures can show the parent of a compound that is named as a salt.

The IC50 is the concentration that inhibits the measured activity by half. Low readings indicate greater potency, high ones weaker potency. The efflux ratio is the permeability from basolateral to apical divided by that in the opposite direction, in the common usage. As a reminder, the kinetic solubility is the concentration staying in solution when a stock, usually in DMSO, is diluted into the medium.

In data set [1] the target is IRAK4 (Homo sapiens (Human), UniProt Q9NWZ3). Nature of the data set: IRAK4 MSD biochemical assay (2-hour 1 mM ATP). The following applies: 0.1 nM IRAK4, 1 mM ATP, 2 hour at room temperature.
Sequence of IRAK4 (Q9NWZ3 whole entry): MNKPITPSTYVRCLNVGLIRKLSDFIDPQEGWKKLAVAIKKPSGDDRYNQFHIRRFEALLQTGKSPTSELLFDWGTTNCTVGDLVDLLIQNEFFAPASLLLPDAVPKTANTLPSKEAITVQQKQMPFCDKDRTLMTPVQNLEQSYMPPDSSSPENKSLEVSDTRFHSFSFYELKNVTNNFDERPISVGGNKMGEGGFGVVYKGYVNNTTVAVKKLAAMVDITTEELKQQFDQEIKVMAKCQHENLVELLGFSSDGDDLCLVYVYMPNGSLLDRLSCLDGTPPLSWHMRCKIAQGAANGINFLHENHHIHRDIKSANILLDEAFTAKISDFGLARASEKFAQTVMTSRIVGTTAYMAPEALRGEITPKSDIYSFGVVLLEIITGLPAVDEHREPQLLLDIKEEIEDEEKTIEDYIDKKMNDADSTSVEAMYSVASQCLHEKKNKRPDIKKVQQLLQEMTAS
Protocol: The 2-hour 1 mM ATP Biochemical Assay employed a MesoScale Detection (MSD) format.
The activity was quenched with 11 μl of 70 mM EDTA, pH 8.
To detect the phosphorylated biotinylated peptide substrate, 30 μl of the quenched reaction mixture was added to equivalent wells of a 384 well streptavidin coated MesoScale plate (Meso Scale Discovery #L21SA-1). After a 1 hour incubation of the plate for 1 hour at room temperature with gentle mixing, the plate wells were washed 3 times with 50 mM Tris, pH 7.5, 150 mM NaCl, 0.02% Tween-20.
A 25 μl volume of 1:500 anti-P-Threonine Rabbit polyclonal Antibody plus 1:500 Goat-anti-Rabbit Sulfo Tag Antibody (Meso Scale Discovery R32AB-1) in 50 mM Tris, pH 7.5, 150 mM NaCl, 0.02% Tween-20 plus 2% BSA was then added to each well. After a 1-hour incubation of the plate for 1 hour at room temperature with gentle mixing, the plate wells were washed, 3 times with 50 mM Tris, pH 7.5, 150 mM NaCl, 0.02% Tween-20.
Data set [2] deals with MDR1 (Homo sapiens (Human), UniProt P08183). Nature of the data set: in vitro. Particulars: MDCK-MDR1.
Sequence of MDR1 (P08183 whole entry): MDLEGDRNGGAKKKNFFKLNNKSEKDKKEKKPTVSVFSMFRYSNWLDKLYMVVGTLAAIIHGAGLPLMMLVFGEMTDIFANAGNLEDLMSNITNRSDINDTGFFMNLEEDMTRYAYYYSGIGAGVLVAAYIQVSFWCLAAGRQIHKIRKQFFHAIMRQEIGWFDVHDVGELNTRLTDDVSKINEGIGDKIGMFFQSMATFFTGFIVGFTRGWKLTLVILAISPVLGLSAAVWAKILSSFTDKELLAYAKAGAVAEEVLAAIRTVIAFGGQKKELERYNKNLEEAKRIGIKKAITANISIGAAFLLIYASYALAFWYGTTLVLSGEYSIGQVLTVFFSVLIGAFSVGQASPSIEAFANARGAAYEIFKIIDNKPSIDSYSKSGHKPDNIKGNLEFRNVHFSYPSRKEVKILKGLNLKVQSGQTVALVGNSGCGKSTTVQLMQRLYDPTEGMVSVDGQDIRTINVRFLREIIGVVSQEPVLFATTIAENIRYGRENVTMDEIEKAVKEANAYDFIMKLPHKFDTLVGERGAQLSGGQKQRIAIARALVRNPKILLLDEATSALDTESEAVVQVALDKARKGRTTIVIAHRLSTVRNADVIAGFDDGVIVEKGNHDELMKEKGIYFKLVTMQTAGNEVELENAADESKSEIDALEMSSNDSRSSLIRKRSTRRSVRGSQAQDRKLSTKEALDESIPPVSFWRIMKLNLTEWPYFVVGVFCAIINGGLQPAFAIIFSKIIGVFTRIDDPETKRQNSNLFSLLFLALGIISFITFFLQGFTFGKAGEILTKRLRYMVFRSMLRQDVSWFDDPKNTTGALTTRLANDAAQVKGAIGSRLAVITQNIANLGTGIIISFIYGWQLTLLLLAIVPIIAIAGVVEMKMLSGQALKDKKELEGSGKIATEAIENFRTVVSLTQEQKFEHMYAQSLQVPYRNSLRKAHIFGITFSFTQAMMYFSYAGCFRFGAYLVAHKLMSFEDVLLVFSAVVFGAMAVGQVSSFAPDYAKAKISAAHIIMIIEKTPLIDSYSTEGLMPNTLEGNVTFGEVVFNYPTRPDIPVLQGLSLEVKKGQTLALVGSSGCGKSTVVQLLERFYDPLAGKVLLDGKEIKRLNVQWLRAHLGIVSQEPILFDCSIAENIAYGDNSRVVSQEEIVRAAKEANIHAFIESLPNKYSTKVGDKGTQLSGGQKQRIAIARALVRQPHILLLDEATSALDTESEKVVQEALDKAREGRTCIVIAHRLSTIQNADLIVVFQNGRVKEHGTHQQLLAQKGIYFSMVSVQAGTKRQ
A short description of data set [3]: Kinetic solubility assay (CLND), pH 6.8. Type of data set: physicochemical. The following applies: aqueous buffer, kinetic from dmso stock; potassium phosphate buffer pH 6.8, 2% DMSO, 24 hours at ambient temperature.

On to `CC[C@H](C)Oc1cc2nc(C34COC(C)(C3)C4)cn2cc1C(=O)Nc1cccn([C@@H]2C[C@@H]2F)c1=O` (single isomer, unassigned) [Example 160], for which it took 3.1 nM to reach half-maximal inhibition in data set [1] (IC50).
With `CC(C)Oc1c(C(=O)Nc2cccn([C@@H]3C[C@H]3C)c2=O)cn2cc(C34COC(C)(C3)C4)nc2c1F` [Example 147, 8-fluoro-7-isopropoxy-2-(1-methyl-2-oxabicyclo[2.1.1]hexan-4-yl)-N-(1-((1R,2R)-2-methylcyclopropyl)-2-oxo-1,2-dihydropyridin-3-yl)imidazo[1,2-a]pyridine-6-carboxamide], the IC50 in data set [1] turned out to be 15.9 nM. In addition, the efflux ratio at 120 min, 1 μM in data set [2] worked out at 1.5.
For `CC12CC(c3cn4cc(C(=O)Nc5cccn([C@@H]6C[C@@H]6F)c5=O)c(OC5CC5)cc4n3)(CO1)C2` (single isomer, unassigned) [Example 174], 37.5 nM corresponded to half-maximal inhibition in data set [1] (IC50).
`CC(C)Oc1nc2nc(C[C@H]3CCOC3)cn2cc1C(=O)Nc1cccn(C2CC2)c1=O` (single isomer, unassigned) [Example 110] gave a 50% inhibitory concentration (IC50) in data set [1] of 0.5 nM. Moreover, the efflux ratio at 120 min, 1 μM in data set [2] amounted to 7.
With `CC[C@@H](C)Oc1nc2nc(C34COC(C)(C3)C4)cn2cc1C(=O)Nc1cccn([C@@H]2C[C@@H]2F)c1=O` (mixture of isomers) [Example 41, 7-((R)-sec-butoxy)-N-(1-(cis-2-fluorocyclopropyl)-2-oxo-1,2-dihydropyridin-3-yl)-2-(1-methyl-2-oxabicyclo[2.1.1]hexan-4-yl)imidazo[1,2-a]pyrimidine-6-carboxamide], in data set [1], the IC50 stood at 0.6 nM. In addition, the efflux ratio at 120 min, 1 μM in data set [2] was found to be 9.1.
For the molecule `CC(C)Oc1nc2nc([C@]34CC[C@](C)(C3)OC4)cn2cc1C(=O)Nc1cccn([C@H]2C[C@@H]2C)c1=O` (single isomer, unassigned) [Example 142], the midpoint of inhibition in data set [1], the IC50, lay at 1.2 nM. For the same molecule, the solubility (kinetic) at 24 h in data set [3] was found to be 37 µg/mL (≈ 77.5 µM).
`CC(C)Oc1c(C(=O)Nc2cccn([C@@H]3C[C@@H]3F)c2=O)cn2cc(C34COC(C)(C3)C4)nc2c1F` (single isomer, unassigned) [Example 92] returned an IC50 in data set [1] of 61 nM.
With `CC(C)Oc1cc2nc([C@@]34CC[C@@](C)(C3)OC4)cn2cc1C(=O)Nc1cccn([C@@H]2C[C@@H]2C)c1=O` [Example 183, 7-isopropoxy-2-((1S,4R)-1-methyl-2-oxabicyclo[2.2.1]heptan-4-yl)-N-(1-((1R,2S)-2-methylcyclopropyl)-2-oxo-1,2-dihydropyridin-3-yl)imidazo[1,2-a]pyridine-6-carboxamide trifluoroacetate], in data set [1], the IC50 was found to be 15.4 nM. For the same molecule, in data set [2], the efflux ratio at 120 min, 1 μM is 2.9.
The matching figures for `CC(C)Oc1nc2nc([C@@]34CC[C@@](C)(C3)OC4)cn2cc1C(=O)Nc1cccn([C@H]2CC23CC3)c1=O` (single isomer, unassigned) [Example 150]: 2.7 nM and 1.
With `CC(C)Oc1cc2nc(C34COC(C)(C3)C4)cn2cc1C(=O)Nc1cccn([C@H]2C[C@@H]2C)c1=O` [Example 140, 7-isopropoxy-2-(1-methyl-2-oxabicyclo[2.1.1]hexan-4-yl)-N-(1-((1S,2S)-2-methylcyclopropyl)-2-oxo-1,2-dihydropyridin-3-yl)imidazo[1,2-a]pyridine-6-carboxamide], 1.1 nM corresponded to half-maximal inhibition in data set [1] (IC50).
`CC(C)Oc1c(C(=O)Nc2cccn([C@@H]3C[C@@H]3F)c2=O)cn2cc([C@@]34CC[C@@](C)(C3)OC4)nc2c1F` (single isomer, unassigned) [Example 124] had a half-maximal inhibitory concentration (IC50) in data set [1] of 45.5 nM.
The molecule `CC(C)Oc1cc2nc(C34CCC(C3)OC4)cn2cc1C(=O)Nc1cccn(C2CC2)c1=O` (stereo not shown) [Example 38, 2-(2-oxabicyclo[2.2.1]heptan-4-yl)-N-(1-cyclopropyl-2-oxo-1,2-dihydropyridin-3-yl)-7-isopropoxyimidazo[1,2-a]pyridine-6-carboxamide] returned an IC50 in data set [1] of 0.3 nM. Further, the efflux ratio at 120 min, 1 μM in data set [2] turned out to be 7.
Take `CC[C@@H](C)Oc1nc2nc([C@]34CC[C@](C)(C3)OC4)cn2cc1C(=O)Nc1cccn(C2CC2)c1=O` [Example 51, 7-((R)-sec-butoxy)-N-(1-cyclopropyl-2-oxo-1,2-dihydropyridin-3-yl)-2-((1R,4S)-1-methyl-2-oxabicyclo[2.2.1]heptan-4-yl)imidazo[1,2-a]pyrimidine-6-carboxamide]: half-maximal inhibition in data set [1] (IC50) required 1.8 nM. In data set [2], the efflux ratio at 120 min, 1 μM stood at 3.1.
For `CC(C)Oc1cc2nc(C34COC(C)(C3)C4)cn2cc1C(=O)Nc1cccn([C@@H]2C[C@@H]2C)c1=O` [Example 133, 7-isopropoxy-2-(1-methyl-2-oxabicyclo[2.1.1]hexan-4-yl)-N-(1-((1R,2S)-2-methylcyclopropyl)-2-oxo-1,2-dihydropyridin-3-yl)imidazo[1,2-a]pyridine-6-carboxamide] the same measures were 21.4 nM and 4.3.
For `CC12CC(c3cn4cc(C(=O)Nc5cccn([C@@H]6C[C@@H]6F)c5=O)c(OC5CCC5)cc4n3)(CO1)C2` (single isomer, unassigned) [Example 172], the 50% inhibitory concentration (IC50) in data set [1] turned out to be 27 nM.
Consider `CC(C)Oc1nc2nc([C@@]34CC[C@@](C)(C3)OC4)cn2cc1C(=O)Nc1cccn([C@@H]2C[C@H]2C)c1=O` (single isomer, unassigned) [Example 148], for which, in data set [1], the IC50 came to 1.2 nM. In addition, the efflux ratio at 120 min, 1 μM in data set [2] turned out to be 2.6.
The matching figures for `CO[C@@H]1C[C@H]1n1cccc(NC(=O)c2cn3cc(C45COC(C)(C4)C5)nc3nc2OC(C)C)c1=O` (single isomer, unassigned) [Example 137]: 1.4 nM and 4.8.
For `CC(C)Oc1nc2nc([C@@]34CC[C@@](C)(C3)OC4)cn2cc1C(=O)Nc1cccn([C@@H]2CC23CC3)c1=O` (single isomer, unassigned) [Example 151] the same measures were 1.1 nM and 1.2.
For `CO[C@H]1C[C@@H]1n1cccc(NC(=O)c2cn3cc(C45COC(C)(C4)C5)nc3nc2OC(C)C)c1=O` (single isomer, unassigned) [Example 138] the same measures were 6.3 nM and 3.8.
`CC(C)Oc1nc2nc(C34CCC(C)(CC3)OC4)cn2cc1C(=O)Nc1cccc(C(F)F)n1` [Comparator 5A, N-(6-(difluoromethyl)pyridin-2-yl)-7-isopropoxy-2-(1-methyl-2-oxabicyclo[2.2.2]octan-4-yl)imidazo[1,2-a]pyrimidine-6-carboxamide, reference compound]: in data set [3], the kinetic solubility at 24 h stood at 1.5 µg/mL (≈ 3.18 µM). Besides, the efflux ratio at 120 min, 1 μM in data set [2] is 1.
`CC(C)Oc1cc2nc([C@]34CC[C@](C)(C3)OC4)cn2cc1C(=O)Nc1cccc(C(F)F)n1` (single isomer, unassigned) [Comparator 3A, reference compound]: the kinetic solubility at 24 h in data set [3] worked out at 0.8 µg/mL (≈ 1.75 µM). Besides, in data set [2], the efflux ratio at 120 min, 1 μM was 0.7.
As to `CCOc1nc2nc(C34COC(C)(C3)C4)cn2cc1C(=O)Nc1cccn(C2CC2)c1=O` [Example 43, N-(1-cyclopropyl-2-oxo-1,2-dihydropyridin-3-yl)-7-ethoxy-2-(1-methyl-2-oxabicyclo[2.1.1]hexan-4-yl)imidazo[1,2-a]pyrimidine-6-carboxamide], it took 1.3 nM to reach half-maximal inhibition in data set [1] (IC50). In addition, the efflux ratio at 120 min, 1 μM in data set [2] came to 10.3.
`CC(C)Oc1cc2nc([C@@]34CC[C@@](C)(C3)OC4)cn2cc1C(=O)Nc1cccn([C@@H]2C[C@@H]2F)c1=O` (single isomer, unassigned) [Example 168]: 7.5 nM corresponded to half-maximal inhibition in data set [1] (IC50).
As for `C[C@H]1C[C@H]1n1cccc(NC(=O)c2cn3cc(C45COC(C)(C4)C5)nc3nc2OC2CCC2)c1=O` [Example 189, 7-cyclobutoxy-2-(1-methyl-2-oxabicyclo[2.1.1]hexan-4-yl)-N-(1-((1R,2S)-2-methylcyclopropyl)-2-oxo-1,2-dihydropyridin-3-yl)imidazo[1,2-a]pyrimidine-6-carboxamide trifluoroacetate], the IC50 in data set [1] came out at 34.6 nM. Besides, the efflux ratio at 120 min, 1 μM in data set [2] was determined as 3.4.
On to `CC(C)Oc1nc2nc([C@]34CC[C@](C)(C3)OC4)cn2cc1C(=O)Nc1cccn([C@@H]2C[C@H]2C)c1=O` (single isomer, unassigned) [Example 141], for which inhibition in data set [1] was half-maximal at 0.4 nM (IC50). In data set [3], the kinetic solubility at 24 h was 43.2 µg/mL (≈ 90.5 µM).
For `CC(C)Oc1c(C(=O)Nc2cccn([C@H]3C[C@H]3F)c2=O)cn2cc([C@@]34CC[C@@](C)(C3)OC4)nc2c1F` (single isomer, unassigned) [Example 125] the same measures were 0.5 nM and 39.9 µg/mL (≈ 80 µM).
For the molecule `CC(C)Oc1cc2nc([C@]34CC[C@](C)(C3)OC4)cn2cc1C(=O)Nc1cccn([C@@H]2C[C@@H]2F)c1=O` (single isomer, unassigned) [Example 170], the IC50 in data set [1] is 9.4 nM.
Regarding `Cc1cnc2c(NC(=O)c3cn4cc([C@@]56CC[C@@](C)(C5)OC6)nc4nc3OC(C)C)cnn2c1` (single isomer, unassigned) [Comparator 4B, reference compound], in data set [3], the kinetic solubility at 24 h stood at 2 µg/mL (≈ 4.33 µM). Also, in data set [2], the efflux ratio at 120 min, 1 μM came out at 2.3.
For `CC[C@H](C)Oc1nc2nc(C34COC(C)(C3)C4)cn2cc1C(=O)Nc1cccn([C@@H]2C[C@@H]2F)c1=O` (mixture of isomers) [Example 42, 7-((S)-sec-butoxy)-N-(1-(cis-2-fluorocyclopropyl)-2-oxo-1,2-dihydropyridin-3-yl)-2-(1-methyl-2-oxabicyclo[2.1.1]hexan-4-yl)imidazo[1,2-a]pyrimidine-6-carboxamide] the same measures were 72.5 µg/mL and 10.8.
Turning to `CC(C)Oc1cc2nc([C@@]34CC[C@@](C)(C3)OC4)cn2cc1C(=O)Nc1cccn(C2CC2F)c1=O` (mixture of isomers) [Example 99, N-(1-(2-fluorocyclopropyl)-2-oxo-1,2-dihydropyridin-3-yl)-7-isopropoxy-2-((1S,4R)-1-methyl-2-oxabicyclo[2.2.1]heptan-4-yl)imidazo[1,2-a]pyridine-6-carboxamide], it took 0.4 nM to reach half-maximal inhibition in data set [1] (IC50). In data set [3], this molecule gave a solubility (kinetic) at 24 h of 62 µg/mL.
